One series deals with U251 cells. As to the kind of experiment: Quantitative peptide uptake, U251. The series is classed as cell-based. The following applies: 1 h, 37 °C; for rank order of uptake efficacy: U251, TAMRA-labelled peptides 1, 2.5, 5 μM, lysate fluorescence 544/590 nm, two experiments in triplicate. The method, then:
(§1) U373MG and U251 cells were maintained as above and then transferred to 6-well plates and grown to 80% confluence. Cells were washed and maintained in phenol red-free DMEM and subsequently treated with TAMRA-conjugated Djeya1 analogues at final concentrations of 1 μM, 2.5 μM, and 5 μM for 1 h in culture conditions as above. Cells were washed four times, detached with 300 μL of 1% (w/v) trypsin (without phenol red) at 37 °C, collected by centrifugation, and lysed in 300 μL 0.1 M NaOH for 2 h on ice. A total of 250 μL of each sample cell lysate was transferred to a black 96-well plate and analysed using a Thermo Fischer Scientific (Loughborough, UK) Fluoroskan Ascent FL fluorescence spectrophotometer (λAbs 544 nm/λEm 590 nm).

Series [1] relates to decapitated S. mediterranea. Briefly: Anterior pole regeneration and eye development assay. The series is classed as in vivo, Schmidtea mediterranea. The following applies: for influence upon planarian head regeneration: 25 μM exogenous application to decapitated S. mediterranea, monitored over 8 days; for response to light: 25 μM in PAM after amputation, day 8; for response to light / regeneration of the anterior pole, including the eye spots: re-treated day 4; for regeneration of the anterior pole, including the eye spots: 25 μM in PAM immediately after transverse amputation, observed day 8, compared to PAM alone; for animals that achieved full regeneration / animals that had commenced the development of photoreceptors within the unpigmented blastema: n = 9; for animals that had commenced the development of photoreceptors within the unpigmented blastema: 25 μM, day 9 post amputation. As to the method: Adult planaria, 4–6 mm in length, and selected for experimentation were starved 5 days prior to amputation. Transverse amputation of planarian heads, post-auricle and pre-pharynx, induced blastema formation in the trunk section, leading to eye regeneration and head remodeling.
Post amputation, planaria were immediately treated with exogenously added Djeya1 analogues in 35 mm diameter × 10 mm depth culture dishes (VWR International Ltd., Lutterworth, UK) to a final volume of 4 mL PAM and maintained at 20 °C. PAM, containing Djeya1 analogues, was replenished 4 days post amputation. […]

Series [2] is described as follows: Circular dichroism secondary structure analysis. The series is classed as physicochemical. The following applies: CD; for difference in percentage α-helicity in the presence of lipid membranes: DMPC and DMPS vesicles, lipid:peptide 100 to 1. The method, then:
Secondary structure analyses of Djeya1 peptides were performed on a Jasco J-815 CD spectrometer (Jasco Ltd., Heckmondwike, UK). Peptides (0.01 mg mL^−^1) were dissolved in either 1 × phosphate buffered saline (PBS) at pH 7.4 or in a 2,2,2-tetrafluoroethanol (TFE) and 1 × PBS mixture (50.0% v/v). All buffers were prepared using ultra-pure water (resistivity 18 MΩ cm), PBS and TFE (Scientific Laboratory Supplies Ltd., Nottingham, UK). CD experiments were also performed at peptide:lipid ratios of 1:100, whilst 1,2-dimyristoyl-sn-glycero-3-phosphatidylcholine (DMPC) and 1,2-dimyristoyl-sn-glycero-3-phosphatidylserine (DMPS) (5 mg mL^−^1) (Avanti Polar Lipids, Alabaster, AL, USA) were dissolved separately in chloroform (HPLC grade, VWR International Ltd Lutterworth, UK) and dried under N2 gas. The lipid film was rehydrated using 1 × PBS, pH 7.5 for 1 h or until the solution was no longer turbid. The solution then underwent 5 cycles of freeze thaw before the lipid/peptide samples were prepared by the addition of peptide stock solution (final concentration 0.01 mg mL^−^1). Far UV CD spectra (180 nm to 260 nm) were recorded at 20 °C using 0.5 nm intervals, a bandwidth of 1 nm, a scan speed of 50 nm min^−1 and a 10 mm path-length cell. Ten accumulations were selected to average a single spectrum. Samples without peptide were prepared for background spectral subtraction. Data, baseline-subtracted and averaged CD, were analyzed using the Dichroweb server CDSSTR and SELCON3 reference dataset 3 [23, 24, 25]. To generate percentage structure averages, these analyses were repeated four times.
In general terms: CD spectra are sensitive to the conformation of chiral molecules.

For a further series, the system named is U373MG cells. Briefly: Quantitative peptide uptake, U373MG. The series is classed as cell-based. The following applies: TAMRA-labelled peptides 1, 2.5, 5 μM, 1 h, 37 °C, lysate fluorescence 544/590 nm, two experiments in triplicate. The method, then:
as §1

Setting [3] is: 25 μM treatment, 30 days post amputation, in PAM.
Setting [4] is: 50% (v/v) TFE/PBS pH 7.4, peptide 0.01 mg mL-1, 20 °C.
Setting [5] is: 50% (v/v) TFE/PBS pH 7.4, peptide 0.01 mg mL-1, 20 °C, Dichroweb, analyses repeated four times.
[6] abbreviates: DMPC vesicles, lipid:peptide 100 to 1, PBS, peptide 0.01 mg mL-1, 20 °C.
[7] abbreviates: DMPS vesicles, lipid:peptide 100 to 1, PBS, peptide 0.01 mg mL-1, 20 °C.
Where [8] appears, read: PBS pH 7.4, peptide 0.01 mg mL-1, 20 °C, Dichroweb CDSSTR/SELCON3, analyses repeated four times.
The mark [9] stands for this setting: PBS pH 7.4, peptide 0.01 mg mL-1, 20 °C, Dichroweb, analyses repeated four times.

[ ]: non-standard residue; d: D form. Aib = CC(C)(N)C(=O)O

With “H-RKLAFRYRRIKE[Aib]YNSYR-NH2 (SMILES CC[C@H](C)[C@H](NC(=O)[C@H](CCCNC(=N)N)NC(=O)[C@H](CCCNC(=N)N)NC(=O)[C@H](Cc1ccc(O)cc1)NC(=O)[C@H](CCCNC(=N)N)NC(=O)[C@H](Cc1ccccc1)NC(=O)[C@H](C)NC(=O)[C@H](CC(C)C)NC(=O)[C@H](CCCCN)NC(=O)[C@@H](N)CCCNC(=N)N)C(=O)N[C@@H](CCCCN)C(=O)N[C@@H](CCC(=O)O)C(=O)NC(C)(C)C(=O)N[C@@H](Cc1ccc(O)cc1)C(=O)N[C@@H](CC(N)=O)C(=O)N[C@@H](CO)C(=O)N[C@@H](Cc1ccc(O)cc1)C(=O)N[C@@H](CCCNC(=N)N)C(N)=O) [[Aib^13]Djeya1, Aib-substituted Djeya1 analogue, position 13; bioportide]”, in the series on U251 cells (TAMRA-labelled peptide), the “uptake efficacy into U251 cells compared with U373MG cells” value is recorded as “increased uptake efficacy”. In addition, in the series with U251 cells, the “rank order of uptake efficacy” value was “[Aib^13]Djeya1 > [Aib^16]Djeya1 > [Aib^10]Djeya1”. In series [1], the “influence upon planarian head regeneration” value was “delay head regeneration”; the response to light entry was “unresponsive to light”; the “regeneration of the anterior pole, including the eye spots” value is “absent”; the “animals that had commenced the development of photoreceptors within the unpigmented blastema” value was 67%. In series [1] (setting [3]), the “animals that remained unregenerated and in stasis” value was found to be 33%; the “animals that achieved full regeneration” value was determined as 67%. In series [2] (setting [4]), this substance showed an Unordered of 22.33 ± 1.50%, a ß-Strand of 31.00 ± 2.08% and a ß-Turns of 7.33 ± 0.05%. The substance further gave a α-helix in series [2] (setting [5]) of 40.00 ± 2.64%. Besides, in series [2] (50% TFE/PBS (v/v) compared with PBS), the “effect of 50% TFE/PBS on α-helical structure” value is listed as “did not enhance”. Moreover, the “difference in percentage α-helicity in the presence of lipid membranes” value in series [2] is listed as “No difference”. In series [2] (setting [6]), this substance displayed an Unordered of 22.00 ± 0.71%, a ß-Strand of 30.00 ± 0.71%, a ß-Turns of 8.00 ± 0.71% and a α-helix of 42.00 ± 0.71%. Further, in series [2] (setting [7]), the Unordered is recorded as 21.00 ± 0.71%, the ß-Strand was 30.00 ± 0.71%, the ß-Turns came out at 7.00 ± 0.71% and the α-helix came out at 42.00 ± 0.00%. The substance further returned a α-helix in series [2] (setting [8]) of 40.67 ± 1.52%. In series [2] (setting [9]), the Unordered worked out at 22.33 ± 1.52%, the ß-Strand came to 30.00 ± 1.00% and the ß-Turns turned out to be 7.00 ± 0.00%. Also, the “rank order of uptake efficacy” value in the series with U373MG cells is “[Aib^16]Djeya1 = [Aib^10]Djeya1 > [Aib^13]Djeya1”.

Consider “H-RKLAFRYRRIKELYN[Aib]YR-NH2 (SMILES CC[C@H](C)[C@H](NC(=O)[C@H](CCCNC(=N)N)NC(=O)[C@H](CCCNC(=N)N)NC(=O)[C@H](Cc1ccc(O)cc1)NC(=O)[C@H](CCCNC(=N)N)NC(=O)[C@H](Cc1ccccc1)NC(=O)[C@H](C)NC(=O)[C@H](CC(C)C)NC(=O)[C@H](CCCCN)NC(=O)[C@@H](N)CCCNC(=N)N)C(=O)N[C@@H](CCCCN)C(=O)N[C@@H](CCC(=O)O)C(=O)N[C@@H](CC(C)C)C(=O)N[C@@H](Cc1ccc(O)cc1)C(=O)N[C@@H](CC(N)=O)C(=O)NC(C)(C)C(=O)N[C@@H](Cc1ccc(O)cc1)C(=O)N[C@@H](CCCNC(=N)N)C(N)=O) [[Aib^16]Djeya1, Aib-substituted Djeya1 analogue, position 16; bioportide]”, for which, in the series with U251 cells, the “rank order of uptake efficacy” value is “[Aib^13]Djeya1 > [Aib^16]Djeya1 > [Aib^10]Djeya1”. Moreover, in series [1], the “influence upon planarian head regeneration” value is given as “delay head regeneration”; the response to light result is “unresponsive to light”; the “regeneration of the anterior pole, including the eye spots” value is “absent”; the “animals that had commenced the development of photoreceptors within the unpigmented blastema” value was found to be 67%. Further, the “animals that achieved full regeneration” value in series [1] (setting [3]) is “all”. For the same substance, in series [2] (setting [4]), the Unordered came out at 19.50 ± 0.71%, the ß-Strand is 27.50 ± 0.71% and the ß-Turns is reported as 7.00 ± 0.00%. For the same substance, the α-helix in series [2] (setting [5]) came out at 46.00 ± 1.41%. In addition, the “difference in percentage α-helicity in the presence of lipid membranes” value in series [2] is reported as “No difference”. In series [2] (setting [6]), this substance showed an Unordered of 22.00 ± 0.71%, a ß-Strand of 30.00 ± 0.71%, a ß-Turns of 7.00 ± 0.71% and a α-helix of 42.00 ± 0.71%. In series [2] (setting [7]), this substance registered an Unordered of 22.00 ± 0.71%, a ß-Strand of 30.00 ± 0.71%, a ß-Turns of 8.00 ± 0.71% and a α-helix of 42.00 ± 0.00%. The substance further showed a α-helix in series [2] (setting [8]) of 39.67 ± 4.04%. In series [2] (setting [9]), the Unordered is reported as 21.00 ± 1.00%, the ß-Strand amounted to 31.67 ± 2.87% and the ß-Turns was determined as 7.33 ± 0.58%. Also, the “rank order of uptake efficacy” value with U373MG cells was “[Aib^16]Djeya1 = [Aib^10]Djeya1 > [Aib^13]Djeya1”.

As to “H-RKLAFRYRRIKELYNSYR-NH2 [Djeya1, octadecapeptide CPP mimicking the α5 helix of the Eya domain of eyes absent proteins]”, the “influence upon planarian head regeneration” value in series [1] is “inactive”. Besides, the Unordered in series [2] (setting [4]) was determined as 20.00 ± 1.41%; in series [2] (setting [6]), 22.00 ± 0.00%; in series [2] (setting [7]) it was 20.00 ± 0.00%; in series [2] (setting [9]), 20.00 ± 1.73%. In addition, the results for the ß-Strand in series [2] (setting [4]), in series [2] (setting [7]) and in series [2] (setting [9]) were 27.55 ± 3.53%, 26.00 ± 1.28% and 30.33 ± 0.58%, respectively. The ß-Turns is given as 7.00 ± 0.00% in series [2] (setting [4]), 8.00 ± 0.0% in series [2] (setting [6]), 8.00 ± 0.00% in series [2] (setting [7]) and 6.67 ± 0.58% in series [2] (setting [9]). In addition, the α-helix in series [2] (setting [5]) was 45.50 ± 4.94%; in series [2] (setting [6]), 44.00 ± 1.53%; in series [2] (setting [7]), 47.00 ± 1.24%; in series [2] (setting [8]), 43.00 ± 1.73%.
